Values joined by “and” are separate entries in the source; they are usually repeats but may differ in a detail not shown here. Equal entries are not always repeated. Marks after values point to notes of the source that are not given here. Blank lines part the entries; values can stand above or below the compound they belong to.
Experiments:
AHAS of 14CS0851-01-14 = experiment: AHAS product feedback inhibition assay; assay type: biochemical, Camelina sativa; details: for sensitivity of AHAS to feedback inhibition, comparison of enzyme extracts: 14CS0851-01-14 vs SRS 934 and MIDAS, 1 mM, 10 mM; for Absorbance reading (530 nm), raw data: single reps
Procedure: (§1) Briefly, for each of the three comparators, leaf and stem (petiole) material was bulk-harvested at the 3-4 leaf stage from at least 30 plantlets, snap-frozen in liquid nitrogen, and stored at −80° C. The AHAS in vitro assay was conducted according to the method of Singh et al (1988), with modifications by Yu (2010) and Rustgi (2014). For each comparator, 4 grams of frozen material were ground to a fine powder with a mortar and pestle in liquid nitrogen and homogenized in 1 volume of cold extraction buffer containing 100 mM potassium phosphate buffer (pH7.5), 10 mM sodium pyruvate, 5 mM MgCl2, 100 μM flavin adenine dinucleotide (FAD), and 10% glycerol. Four 2-mL microcentrifuge tubes were used for each comparator. The homogenate was centrifuged at 13,000 rpm for 10 min at 4° C., supernatant collected and re-centrifuged for an additional 10 minutes under the same conditions. For each tube, 1 mL of supernatant was pipetted into a new 2-mL microcentrifuge tube, and protein was precipitated by the addition of 1 mL of saturated ammonium sulfate. The solution was mixed well by vortex and allowed to stand on ice for 20 minutes, then centrifuged at 13,000 rpm at 4° C. The protein pellet was resuspended in 300 μL of reaction buffer containing 50 mM potassium phosphate buffer (pH7.5), 100 mM sodium pyruvate, 10 mM MgCl2, 1 mM EDTA, 10 μM FAD, 100 mM NaCl, and 1 mM thiamine pyrophosphate. Tubes of each comparator were combined, mixed well, kept on ice and immediately used in the AHAS activity and feedback inhibition assays.
(§2) Total protein concentration of the crude extract was determined by the Bradford method (Bradford, 1976). All assays were conducted using 300 μg of total protein each.
(§3) […] (2010). The reaction mixture contained 50 μL enzyme extract and 50 μL 100 mM sodium pyruvate and inhibitor amino acid. The reaction was incubated at 37° C. for 60 minutes, then stopped and acetolactate converted to acetoin with the addition of 20 μL of 6 N H2SO4 and incubated at 60° C. for 15 minutes. A separate background “blank” was included for each sample group by adding 20 μL of 6 N H2SO4 prior to the addition of the enzyme extracts. Then, 95 μL of 0.55% w/v creatine solution and 95 μL of α-naphthol solution (5.5% w/v in 5 N NaOH) were added and the mixture incubated at 60° C. for a further 15 minutes. After cooling to room temperature for 15 minutes, enzyme activity was determined colorimetrically by reading the absorbance at 530 nm. Three independent experiments were conducted. Experiment 1 and 2 each contained 2 technical replicates, while experiment 3 included 3 technical replicates.

AHAS of MIDAS = experiment: AHAS product feedback inhibition assay; assay type: biochemical, Camelina sativa; details: for Absorbance reading (530 nm), raw data: single reps
Procedure: as §1, §2, §3

AHAS of SRS 934 = experiment: AHAS product feedback inhibition assay; assay type: biochemical, Camelina sativa; details: for Absorbance reading (530 nm), raw data: single reps
Procedure: as §1, §2, §3

10CS0048 (MIDAS) = experiment: Phenotype scoring (R/S) after thifensulfuron-methyl 2.5 g ai/ha; assay type: in vivo, Camelina sativa; details: 7 d after application
Description: (§4) At a thifensulfuron-methyl application rate of 2.5 g ai/ha, plants from parental, F2, BC1F1, and BC4F2 populations could easily be scored into one of two discrete phenotypic classes (R, resistant or S, susceptible) 7 d after herbicide application.

12CS0365 [1] = experiment: as above; assay type: in vivo, Camelina sativa; details: 7 d after application
Description: as §4

12CS0366 [2] = experiment: as above; assay type: in vivo, Camelina sativa; details: 7 d after application
Description: as §4

13CS0786 [3] = experiment: as above; assay type: in vivo, Camelina sativa; details: 7 d after application
Description: as §4

SRS 934 [4] = experiment: as above; assay type: in vivo, Camelina sativa; details: 7 d after application
Description: as §4

[5] = tested on: segregating camelina populations; experiment: Segregation of resistance to thifensulfuron-methyl in F2, BC1F1 and BC4F2 populations; assay type: in vivo, Camelina sativa; details: 2.5 g ai/ha, 7 d
Description: From each cross combination, randomly selected F1 plants were selfed for the development of F2 populations segregating for 1 resistance gene.
Further, mutant lines 12CS0365 and 12CS0366 were crossed with each other and a randomly selected F1 plant selfed for the development of an F2 population segregating for 2 independent resistance genes. F4 progeny of F2 plants homozygous for both resistance genes (13CS0786) was backcrossed to 10CS0048 to form a backcross (BC1F1) population. Further backcrossing to the recurrent parent 10CS0048 was conducted until stabilization of the trait in the BC4F3 generation (homozygous for 2 resistance genes).
as §4
Assuming inheritance in a Mendelian manner, the expected genotypic segregation ratio in an F2 population segregating for a single resistance gene would be 1(RR): 2(Rr): 1(rr), or 3(RR, Rr): 1(rr).
If two unlinked genes for resistance are segregating in an F2 population, the expected genotypic segregation ratio would be 9 (R1-R2-): 2 (R1r1r2r2): 2 (r1r1R2r2): 1 (R1R1r2r2): 1 (r1r1R2R2): 1 (r1r1r2r2), or 15 (R1-R2-, R1r1r2r2, r1r1R2r2, R1R1r2r2, r1r1R2R2): 1 (r1r1r2r2). The expected genotypes in the BC1F1 population would be R1r1R2r2, R1r1r2r2, r1r1R2r2, and r1r1r2r2, each produced in equal frequency, resulting in a segregation ratio of 1 (R1r1R2r2): 2 (R1r1r2r2, r1r1R2r2): 1 (r1r1r2r2), or 3 (R1r1R2r2, R1r1r2r2, r1r1R2r2): 1 (r1r1r2r2). The expected segregation ratio in the BC4F2 generation would be the same as that observed in the F2 population.
The F2 population resulting from the reciprocal cross of 10CS0048 with 12CS0365 and 12CS0366, respectively, the F2 population resulting from the cross 12CS0365/12CS0366 and the BC1F1 and BC4F2 populations resulting from the cross of F4 plants homozygous for 2 resistance genes (13CS0786) with recurrent parent 10CS0048, gave good fit to the expected segregation ratios (Table 7).

SRS 934 [6] = experiment: Greenhouse dose-response to thifensulfuron-methyl (height, biomass); assay type: in vivo, Camelina sativa; details: 21 days after application, rates 0 to 525 g ai/ha, n = 16
12CS0365 [7] = experiment: as above; assay type: in vivo, Camelina sativa; details: 21 days after application, rates 0 to 525 g ai/ha, n = 16
12CS0366 [8] = experiment: as above; assay type: in vivo, Camelina sativa; details: 21 days after application, rates 0 to 525 g ai/ha, n = 16
13CS0786 [9] = experiment: as above; assay type: in vivo, Camelina sativa; details: 21 days after application, rates 0 to 525 g ai/ha, n = 16
[10] = Experiment 1, 30 (mM) amino acid
[11] = Experiment 2, 30 (mM) amino acid
[12] = Experiment 2, 100 mM amino acid
[13] = Experiment 3, 30 (mM) amino acid
[14] = F2 of 12CS0365 × 10CS0048 (reciprocal)
[15] = F2 of 12CS0366 × 10CS0048 (reciprocal)
[16] = Experiment 2, 10 mM amino acid, listed as Valine

sensitivity of AHAS to feedback inhibition, comparison of enzyme extracts (AHAS of 14CS0851-01-14; 100 mM amino acid): no significant difference
SMILES: CC[C@H](C)[C@H](N)C(=O)O [isoleucine]
Absorbance reading (530 nm), AVG of reps (AHAS of 14CS0851-01-14; [10]): 0.209
Absorbance reading (530 nm), raw data (AHAS of 14CS0851-01-14; [10]): 0.201 and 0.217
Absorbance reading (530 nm), AVG of reps (AHAS of 14CS0851-01-14; [11]): 0.186
Absorbance reading (530 nm), raw data (AHAS of 14CS0851-01-14; [12]): 0.170
Absorbance reading (530 nm), raw data (AHAS of 14CS0851-01-14; [11]): 0.200 and 0.171
Absorbance reading (530 nm), AVG of reps (AHAS of 14CS0851-01-14; [13]): 0.088
Absorbance reading (530 nm), raw data (AHAS of 14CS0851-01-14; [13]): 0.087 and 0.082 and 0.094
Absorbance reading (530 nm), AVG of reps (AHAS of MIDAS; [10]): 0.2675
Absorbance reading (530 nm), raw data (AHAS of MIDAS; [10]): 0.275 and 0.26
Absorbance reading (530 nm), AVG of reps (AHAS of MIDAS; [12]): 0.163
Absorbance reading (530 nm), raw data (AHAS of MIDAS; [11]): 0.208 and 0.176
Absorbance reading (530 nm), AVG of reps (AHAS of MIDAS; [13]): 0.103
Absorbance reading (530 nm), raw data (AHAS of MIDAS; [13]): 0.100 and 0.107 and 0.102
Absorbance reading (530 nm), AVG of reps (AHAS of SRS 934; [10]): 0.234
Absorbance reading (530 nm), raw data (AHAS of SRS 934; [10]): 0.233
Absorbance reading (530 nm), AVG of reps (AHAS of SRS 934; [11]): 0.187
Absorbance reading (530 nm), raw data (AHAS of SRS 934; [11]): 0.219 and 0.154
Absorbance reading (530 nm), AVG of reps (AHAS of SRS 934; [13]): 0.033
Absorbance reading (530 nm), raw data (AHAS of SRS 934; [13]): 0.100

sensitivity of AHAS to feedback inhibition, comparison of enzyme extracts (AHAS of 14CS0851-01-14; 100 mM amino acid): no significant difference
SMILES: CC(C)C[C@H](N)C(=O)O [leucine]
Absorbance reading (530 nm), AVG of reps (AHAS of 14CS0851-01-14; Experiment 1, 100 mM amino acid): 0.143

SMILES: COC(=O)c1sccc1S(=O)(=O)NC(=O)Nc1nc(C)nc(OC)n1 [thifensulfuron-methyl]
phenotype after herbicide application (10CS0048 (MIDAS)): either killed or greatly damaged
phenotype after herbicide application (12CS0365 [1]): resistant phenotype
phenotype after herbicide application (12CS0366 [2]): resistant phenotype
phenotype after herbicide application (13CS0786 [3]): resistant phenotype
phenotype after herbicide application (SRS 934 [4]): either killed or greatly damaged
Resistant (R), number of plants ([5]; BC1F1 of 10CS0048 × 13CS0786): 27 (27)^
Susceptible (S), number of plants ([5]; BC1F1 of 10CS0048 × 13CS0786): 9 (9)
Resistant (R), number of plants ([5]; BC4F2 of 10CS0048 × 13CS0786): 147 (147.2)
Susceptible (S), number of plants ([5]; BC4F2 of 10CS0048 × 13CS0786): 10 (9.8)
Resistant (R), number of plants [5, 14]: 555 (568)^‡
Susceptible (S), number of plants [5, 14]: 202 (189)
Resistant (R), number of plants ([5]; F2 of 12CS0365 × 12CS0366): 307 (306.6)
Susceptible (S), number of plants ([5]; F2 of 12CS0365 × 12CS0366): 20 (20.4)
Resistant (R), number of plants [5, 15]: 549 (540)^
Susceptible (S), number of plants [5, 15]: 171 (180)
ED50 biomass (SRS 934 [6]): 0.09 g ai/ha
ED50 height (SRS 934 [6]): 0.14 g ai/ha
ED50 biomass (12CS0365 [7]): 0.69 g ai/ha
ED50 height (12CS0365 [7]): 1.81 g ai/ha
ED50 biomass (12CS0366 [8]): 8.67 g ai/ha
ED50 height (12CS0366 [8]): 5.25 g ai/ha
ED50 biomass (13CS0786 [9]): 89.61 g ai/ha
ED50 height (13CS0786 [9]): 26.36 g ai/ha

sensitivity of AHAS to feedback inhibition, comparison of enzyme extracts (AHAS of 14CS0851-01-14; 100 mM amino acid): no significant difference
SMILES: CC(C)[C@H](N)C(=O)O [valine]
Absorbance reading (530 nm), AVG of reps (AHAS of 14CS0851-01-14; Experiment 2, 10 mM amino acid): 0.178
Absorbance reading (530 nm), raw data (AHAS of 14CS0851-01-14; Experiment 2, 10 mM amino acid): 0.190
Absorbance reading (530 nm), raw data (AHAS of 14CS0851-01-14; [12]): 0.333
Absorbance reading (530 nm), AVG of reps (AHAS of 14CS0851-01-14; Experiment 3, 10 mM amino acid): 0.073
Absorbance reading (530 nm), raw data (AHAS of 14CS0851-01-14; Experiment 3, 10 mM amino acid): 0.057 and 0.084
Absorbance reading (530 nm), AVG of reps (AHAS of MIDAS; Experiment 1, 10 mM amino acid): 0.214
Absorbance reading (530 nm), raw data (AHAS of MIDAS; Experiment 1, 10 mM amino acid): 0.205 and 0.223
Absorbance reading (530 nm), AVG of reps (AHAS of MIDAS; Experiment 2, 10 mM amino acid): 0.191
Absorbance reading (530 nm), raw data (AHAS of MIDAS; Experiment 2, 10 mM amino acid): 0.217
Absorbance reading (530 nm), raw data (AHAS of MIDAS; [16]): 0.165
Absorbance reading (530 nm), AVG of reps (AHAS of MIDAS; Experiment 3, 10 mM amino acid): 0.112
Absorbance reading (530 nm), raw data (AHAS of MIDAS; Experiment 3, 10 mM amino acid): 0.133 and 0.110 and 0.112
Absorbance reading (530 nm), AVG of reps (AHAS of SRS 934; Experiment 1, 10 mM amino acid): 0.184
Absorbance reading (530 nm), raw data (AHAS of SRS 934; Experiment 1, 10 mM amino acid): 0.186 and 0.182
Absorbance reading (530 nm), AVG of reps (AHAS of SRS 934; Experiment 2, 10 mM amino acid): 0.179
Absorbance reading (530 nm), raw data (AHAS of SRS 934; [16]): 0.206 and 0.151
Absorbance reading (530 nm), AVG of reps (AHAS of SRS 934; Experiment 3, 10 mM amino acid): 0.093
Absorbance reading (530 nm), raw data (AHAS of SRS 934; Experiment 3, 10 mM amino acid): 0.091
